PubChem BioAssay (NCI)
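Assay format: 96-well plates, 48-hour exposure. At the TGI there is no net growth.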

Columns and labels:
Assay in all cases: NCI anticancer screen, dose series, 48 h
[1] = tested on: CAKI-1 renal
[2] = tested on: OVCAR-8 ovarian
[3] = tested on: NCI-H522 lung
[4] = tested on: HOP-62 NSCLC
[5] = tested on: COLO 205 colon
[6] = tested on: LXFL 529 NSCLC
[7] = tested on: OVCAR-3 ovarian
[8] = tested on: UACC-62 melanoma
[9] = tested on: SF-295 CNS
[10] = tested on: SF-268 CNS
[11] = tested on: TK-10 renal
[12] = tested on: EKVX NSCLC
[13] = tested on: MOLT-4 leukemia
[14] = tested on: KM12 colon
[15] = tested on: IGROV1 ovarian
[16] = tested on: OVCAR-5 ovarian
[17] = tested on: SW-620 colon
[18] = tested on: UO-31 renal
[19] = tested on: SK-MEL-5 melanoma
[20] = tested on: RPMI-8226 leukemia
[21] = tested on: HT29 colon
[22] = tested on: NCI-H23 lung
[23] = tested on: DLD-1 colon
[24] = tested on: M14 melanoma
[25] = tested on: A549 NSCLC
[26] = tested on: SK-MEL-28 melanoma
[27] = tested on: UACC-257 melanoma
[28] = tested on: HCT-116 colon
[29] = tested on: A498 renal
[30] = tested on: 786-0 renal
[31] = tested on: M19-MEL melanoma
[32] = tested on: U251 CNS
[33] = tested on: SK-OV-3 ovarian
[34] = tested on: SNB-78 CNS
[35] = tested on: HOP-18 NSCLC
[36] = tested on: NCI-H460 lung
[37] = tested on: OVCAR-4 ovarian
[38] = tested on: HCC-2998 colon
[39] = tested on: SF-539 CNS
[40] = tested on: HL-60(TB) leukemia
[41] = tested on: SK-MEL-2 melanoma
[42] = tested on: MALME-3M melanoma
[43] = tested on: SNB-19 CNS
[44] = tested on: CCRF-CEM leukemia
[45] = tested on: KM20L2 colon
[46] = tested on: K-562 leukemia
[47] = tested on: SNB-75 CNS
[48] = tested on: RXF 393 renal
[49] = tested on: NCI-H226 lung
[50] = tested on: SN12C renal
[51] = tested on: SR leukemia
[52] = tested on: HCT-15 colon
[53] = tested on: NCI/ADR-RES ovarian
[54] = tested on: DU-145 prostate
[55] = tested on: MCF7 breast
[56] = tested on: HOP-92 NSCLC
[57] = tested on: MDA-MB-435
[58] = tested on: ACHN renal
[59] = tested on: HS 578T breast
[60] = tested on: MDA-MB-231 breast
[61] = tested on: PC-3 prostate
[62] = tested on: MDA-N
[63] = tested on: LOX IMVI melanoma
[64] = tested on: BT-549 breast
[65] = tested on: T-47D breast

CCOC(=O)C1=C(C(=O)OCC)C2(c3ccccc3)N(O1)c1ccccc1C2(C)C (stereo not drawn) was tested, and the TGI [1] was over 100 µM, the TGI [2] was over 100 µM and the TGI [3] was 63.8 µM. For the same molecule, the TGI [4] was over 100 µM, the TGI [5] was over 100 µM and the TGI [6] was over 100 µM. It also gave a TGI [7] of over 100 µM, a TGI [8] of over 100 µM and a TGI [9] of over 100 µM. The TGI [10] was over 100 µM, the TGI [11] was over 100 µM and the TGI [12] was over 100 µM. It also gave a TGI [13] of over 100 µM, a TGI [14] of over 100 µM and a TGI [15] of over 100 µM. For the same molecule, the TGI [16] was over 100 µM, the TGI [17] was over 100 µM and the TGI [18] was 67.1 µM. It also gave a TGI [19] of over 100 µM, a TGI [20] of 57.3 µM and a TGI [21] of over 100 µM. For the same molecule, the TGI [22] was over 100 µM, the TGI [23] was over 100 µM and the TGI [24] was over 100 µM. The TGI [25] was over 100 µM, the TGI [26] was over 100 µM and the TGI [27] was over 100 µM. For the same molecule, the TGI [28] was over 100 µM, the TGI [29] was over 100 µM and the TGI [30] was over 100 µM. It also gave a TGI [31] of over 100 µM, a TGI [32] of over 100 µM and a TGI [33] of 95.2 µM. The TGI [34] was over 100 µM, the TGI [35] was 83.3 µM and the TGI [36] was over 100 µM. The TGI [37] was 71.8 µM, the TGI [38] was over 100 µM and the TGI [39] was over 100 µM. For the same molecule, the TGI [40] was 53 µM, the TGI [41] was over 100 µM and the TGI [42] was over 100 µM. For the same molecule, the TGI [43] was over 100 µM, the TGI [44] was over 100 µM and the TGI [45] was over 100 µM. The TGI [46] was over 100 µM, the TGI [47] was 89.5 µM and the TGI [48] was over 100 µM. It also gave a TGI [49] of over 100 µM.
Work on CC(CC[C@@]1(O)OC2C[C@H]3[C@@H]4CC[C@H]5CC(OC6OC(CO)C(OC7OC(CO)C(O)C(OC8OCC(O)C(O)C8O)C7OC7OC(CO)C(O)C(O)C7O)C(O)C6O)[C@H](O)CC5(C)[C@H]4CCC3(C)C2[C@@H]1C)COC1OC(CO)C(O)C(O)C1O (stereo partly drawn) yielded a TGI [1] of 43.8 µM, a TGI [2] of over 50 µM and a TGI [3] of 22.3 µM. For the same molecule, the TGI [4] was 17.9 µM, the TGI [5] was 31 µM and the TGI [7] was 23.1 µM. The TGI [50] was 19.6 µM, the TGI [8] was 45.6 µM and the TGI [9] was 45.2 µM. It also gave a TGI [10] of 9.32 µM, a TGI [11] of 16.6 µM and a TGI [51] of over 50 µM. The TGI [12] was 8.9 µM, the TGI [13] was over 50 µM and the TGI [52] was over 50 µM. The TGI [14] was over 50 µM, the TGI [53] was 31.1 µM and the TGI [15] was over 50 µM. It also gave a TGI [54] of 10.3 µM, a TGI [55] of over 50 µM and a TGI [16] of 27.8 µM. The TGI [17] was over 50 µM, the TGI [18] was 21.3 µM and the TGI [19] was 17.7 µM. The TGI [56] was over 50 µM, the TGI [20] was over 50 µM and the TGI [21] was 33.4 µM. It also gave a TGI [22] of 15.9 µM, a TGI [57] of over 50 µM and a TGI [58] of over 50 µM. It also gave a TGI [24] of over 50 µM, a TGI [25] of 11.1 µM and a TGI [59] of over 50 µM. For the same molecule, the TGI [26] was over 50 µM, the TGI [27] was 48.2 µM and the TGI [28] was 47.3 µM. For the same molecule, the TGI [29] was over 50 µM, the TGI [30] was 21.8 µM and the TGI [32] was over 50 µM. The TGI [33] was 43.3 µM, the TGI [36] was 10.2 µM and the TGI [60] was over 50 µM. The TGI [37] was 36.9 µM, the TGI [61] was over 50 µM and the TGI [38] was 34.2 µM. It also gave a TGI [62] of over 50 µM, a TGI [63] of 48.8 µM and a TGI [64] of 6.64 µM. The TGI [39] was 10.7 µM, the TGI [40] was 29.1 µM and the TGI [41] was 31.6 µM. For the same molecule, the TGI [42] was over 50 µM, the TGI [43] was over 50 µM and the TGI [44] was over 50 µM. The TGI [65] was 34.6 µM, the TGI [46] was over 50 µM and the TGI [47] was 9.19 µM. The TGI [48] was 17.2 µM and the TGI [49] was 28.8 µM.
